According to patent EP4624465A1, “COMPOUND SERVING AS DDR1 KINASE INHIBITOR, AND MEDICINE” (Nippon Shinyaku Co., Ltd., priority 2022, dated 2024):
Values joined by “and” are separate entries in the source; they are usually repeats but may differ in a detail not shown here. Equal entries are not always repeated. Structures can show the parent of a compound that is named as a salt.

How the values were obtained:
DDR1 kinase [1] = molecular target: T1, DDR1 kinase (Homo sapiens, UniProt Q08345); test: Evaluation of DDR1 kinase inhibition in DDR1-expressing U2OS cells (type I collagen stimulation, PathHunter detection); assay type: cell-based; set-up: host or cells: U2OS; details: type I collagen 50 µg/mL stimulation, duplicate, read-out: DDR-1 IC50
Experimental: The solution was further diluted in an E-MEM medium (Fujifilm Wako Pure Chemicals, 051-07615) containing 10% fetal bovine serum (FBS, Gibco, 10270106) to 60000, 6000, 600, 60, 6, and 0.6 nM to prepare test substance solutions. 2. […] On the following day, after the plate was left at room temperature for 1 hour, a detection solution was added to the wells at […] according to the handling instructions for the PathHunter® Detection Kit (DiscoverX, 93-0001), and then incubated at room temperature for 2 hours. After the incubation, a luminescence intensity was measured by Envision (Perkin-Elmer). Tests were performed in duplicate. 3.
Target sequence in this assay (Q08345 19-913): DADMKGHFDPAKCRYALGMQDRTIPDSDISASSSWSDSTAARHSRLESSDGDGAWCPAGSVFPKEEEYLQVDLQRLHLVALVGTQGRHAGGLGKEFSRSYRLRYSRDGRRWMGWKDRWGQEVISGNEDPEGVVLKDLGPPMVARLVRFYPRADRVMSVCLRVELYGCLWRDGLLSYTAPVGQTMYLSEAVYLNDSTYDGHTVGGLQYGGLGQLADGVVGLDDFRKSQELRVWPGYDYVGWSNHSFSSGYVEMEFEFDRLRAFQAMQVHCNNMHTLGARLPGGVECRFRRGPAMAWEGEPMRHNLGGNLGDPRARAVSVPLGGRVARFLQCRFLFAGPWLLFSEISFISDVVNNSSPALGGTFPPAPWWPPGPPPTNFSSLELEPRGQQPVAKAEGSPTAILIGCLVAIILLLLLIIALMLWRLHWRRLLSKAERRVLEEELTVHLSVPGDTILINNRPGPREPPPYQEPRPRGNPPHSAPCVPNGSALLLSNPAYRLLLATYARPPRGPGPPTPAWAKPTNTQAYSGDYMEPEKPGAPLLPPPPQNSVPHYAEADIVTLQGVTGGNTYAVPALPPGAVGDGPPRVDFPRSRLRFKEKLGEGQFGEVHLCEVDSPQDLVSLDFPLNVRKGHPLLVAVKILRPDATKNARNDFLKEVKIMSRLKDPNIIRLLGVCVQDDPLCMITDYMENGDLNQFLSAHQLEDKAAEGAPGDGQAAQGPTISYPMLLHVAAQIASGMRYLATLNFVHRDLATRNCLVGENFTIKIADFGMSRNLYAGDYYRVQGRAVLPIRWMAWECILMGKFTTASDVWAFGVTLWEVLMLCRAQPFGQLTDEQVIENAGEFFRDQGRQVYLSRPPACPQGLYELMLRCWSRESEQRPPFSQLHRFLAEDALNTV

DDR1 kinase [2] = molecular target: T1, DDR1 kinase; test: Evaluation of DDR1 kinase inhibition (LANCE Ultra TR-FRET kinase assay); assay type: biochemical; set-up: purchased Carna Biosciences 08-113; details: DDR1 protein 0.5 nM, LANCE Ultra ULight-poly GAT substrate, 2 hours at room temperature, duplicate; read-out: DDR-1 IC50
Target sequence in this assay (Q08345 19-876 isoform Q08345-2 limits assumed): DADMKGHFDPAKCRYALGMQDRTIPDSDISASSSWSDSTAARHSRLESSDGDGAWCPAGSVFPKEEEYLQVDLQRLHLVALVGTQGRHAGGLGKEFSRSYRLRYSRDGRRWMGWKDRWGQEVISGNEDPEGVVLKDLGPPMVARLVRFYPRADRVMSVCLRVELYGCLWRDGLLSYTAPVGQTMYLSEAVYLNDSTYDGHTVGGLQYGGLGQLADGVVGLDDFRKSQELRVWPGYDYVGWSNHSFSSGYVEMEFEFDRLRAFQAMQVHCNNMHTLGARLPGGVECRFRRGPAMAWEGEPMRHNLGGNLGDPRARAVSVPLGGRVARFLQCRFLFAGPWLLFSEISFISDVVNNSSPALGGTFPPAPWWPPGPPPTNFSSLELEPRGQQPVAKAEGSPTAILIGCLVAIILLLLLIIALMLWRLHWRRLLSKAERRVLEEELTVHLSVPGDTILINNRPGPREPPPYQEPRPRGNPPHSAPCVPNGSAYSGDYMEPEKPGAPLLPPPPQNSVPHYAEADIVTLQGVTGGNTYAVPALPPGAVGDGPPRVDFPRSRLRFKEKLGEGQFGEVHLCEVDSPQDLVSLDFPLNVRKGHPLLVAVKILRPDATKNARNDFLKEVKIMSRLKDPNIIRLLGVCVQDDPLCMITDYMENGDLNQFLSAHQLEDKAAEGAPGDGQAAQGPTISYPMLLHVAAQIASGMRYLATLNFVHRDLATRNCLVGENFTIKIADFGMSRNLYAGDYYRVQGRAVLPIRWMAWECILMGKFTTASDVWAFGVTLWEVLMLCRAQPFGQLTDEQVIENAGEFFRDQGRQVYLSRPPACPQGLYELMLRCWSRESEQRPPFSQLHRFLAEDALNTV

Row | Compound | IC50 (DDR1 kinase [1]) | IC50 (DDR1 kinase [2])
1 | O=C(Cn1nc(C2CN(C(=O)c3cc(NC4CC4)ncn3)C2)c2c(F)cc(F)cc21)NCC(F)(F)F [Compound E-31, 2-(3-{1-[6-(cyclopropylamino)pyrimidine-4-carbonyl]azetidin-3-yl}-4,6-difluoro-1H-indazol-1-yl)-N-(2,2,2-trifluoroethyl)acetamide] | 0.69 µM | 0.021 µM
2 | Nc1cc(C(=O)N2CC(c3nn(Cc4cn(Cc5ccccc5)nn4)c4cccc(F)c34)C2)ccn1 [Compound E-35, 4-(3-{1-[(1-benzyl-1H-1,2,3-triazol-4-yl)methyl]-4-fluoro-1H-indazol-3-yl}azetidine-1-carbonyl)pyridin-2-amine hydrochloride] | 2 µM | 0.031 µM
3 | Nc1cc(C(=O)N2CC(c3nn(Cc4cn(CC5CC5)nn4)c4cccc(F)c34)C2)ccn1 [Compound E-37, 4-[3-(1-{[1-(cyclopropylmethyl)-1H-1,2,3-triazol-4-yl]methyl}-4-fluoro-1H-indazol-3-yl)azetidine-1-carbonyl]pyridin-2-amine hydrochloride] | 2.6 µM | 0.05 µM
4 | Nc1cc(C(=O)N2CC(c3nn(CC(=O)N4CCC[C@H]4C(F)(F)F)c4ccccc34)C2)ccn1 [Compound E-40, 2-{3-[1-(2-aminopyridine-4-carbonyl)azetidin-3-yl]-1H-indazol-1-yl}-1-[(2S)-2-(trifluoromethyl)pyrrolidin-1-yl]ethan-1-one] | 0.069 µM | 0.0057 µM
5 | Nc1cc(C(=O)N2CC(c3nn(CC(=O)N4CCO[C@@H](C(F)(F)F)C4)c4cc(F)cc(F)c34)C2)c(F)cn1 [Compound E-42, 2-{3-[1-(2-amino-5-fluoropyridine-4-carbonyl)azetidin-3-yl]-4,6-difluoro-1H-indazol-1-yl)-1-[(2R)-2-(trifluoromethyl)morpholin-4-yl]ethan-1-one] | 0.15 µM | 0.0032 µM
6 | CN(CC(F)(F)F)C(=O)Cn1nc(C2CN(C(=O)c3ccnc(N)c3)C2)c2ccccc21 [Compound E-45, 2-{3-[1-(2-aminopyridine-4-carbonyl)azetidin-3-yl]-1H-indazol-1-yl}-N-methyl-N-(2,2,2-trifluoroethyl)acetamide] | 0.14 µM | 0.0044 µM
7 | Nc1cc(C(=O)N2CC(c3nn(CC(=O)N4CCC[C@@H]4C(F)(F)F)c4cc(F)cc(F)c34)C2)ccn1 [Compound E-50, 2-{3-[1-(2-aminopyridine-4-carbonyl)azetidin-3-yl]-4,6-difluoro-1H-indazol-1-yl]-1-[(2R)-2-(trifluoromethyl)pyrrolidin-1-yl]ethan-1-one] | 1.9 µM | 0.028 µM
8 | Cc1c(C(=O)N2CC(c3nn(CC(=O)N4CCO[C@@H](C(F)(F)F)C4)c4cc(F)cc(F)c34)C2)ccnc1N [Compound E-51, 2-{3-[1-(2-amino-3-methylpyridine-4-carbonyl)azetidin-3-yl]-4,6-difluoro-1H-indazol-1-yl}-1-[(2R)-2-(trifluoromethyl)morpholin-4-yl]ethan-1-one hydrochloride] | 0.4 µM | 0.012 µM
9 | Nc1cc(C(=O)N2CC(c3nn(CC(=O)N4CCC[C@H]4C(F)(F)F)c4cncc(F)c34)C2)ccn1 [Compound E-54, 2-{3-[1-(2-aminopyridine-4-carbonyl)azetidin-3-yl]-4-fluoro-1H-pyrazolo[3,4-c]pyridin-1-yl}-1-[(2S)-2-(trifluoromethyl)pyrrolidin-1-yl]ethan-1-one hydrochloride] | 0.18 µM | 0.0062 µM
10 | Nc1cc(C(=O)N2CC(c3nn(Cc4nc(-c5cccc(C(F)(F)F)c5)no4)c4cccc(F)c34)C2)ccn1 [Compound E-55, 4-{3-[4-fluoro-1-({3-[3-(trifluoromethyl)phenyl]-1,2,4-oxadiazol-5-yl}methyl)-1H-indazol-3-yl]azetidine-1-carbonyl}pyridin-2-amine] | 0.15 µM | 0.023 µM
11 | CN(CC(F)(F)F)C(=O)Cn1nc(C2CN(C(=O)c3cc(N)ncc3F)C2)c2c(F)cccc21 [Compound E-59, 2-{3-[1-(2-amino-5-fluoropyridine-4-carbonyl)azetidin-3-yl]-4-fluoro-1H-indazol-1-yl}-N-methyl-N-(2,2,2-trifluoroethyl)acetamide] | 0.17 µM | 0.0054 µM
12 | O=C(Cn1nc(C2CN(C(=O)c3ccnc4[nH]ccc34)C2)c2c(Cl)cccc21)NCC(F)(F)F [Compound E-61] | 0.96 µM and 1.6 µM | 0.0028 µM
13 | CNc1cc(C(=O)N2CC(c3nn(CC(=O)NCC(F)(F)F)c4cccc(Cl)c34)C2)ccn1 [Compound E-63, 2-(4-chloro-3-{1-[2-(methylamino)pyridine-4-carbonyl]azetidin-3-yl]-1H-indazol-1-yl)-N-(2,2,2-trifluoroethyl)acetamide] | 0.14 µM | 0.0043 µM
14 | CCNc1cc(C(=O)N2CC(c3nn(CC(=O)NCC(F)(F)F)c4cccc(Cl)c34)C2)ccn1 [Compound E-64, 2-(4-chloro-3-(1-[2-(ethylamino)pyridine-4-carbonyl]azetidin-3-yl}-1H-indazol-1-yl)-N-(2,2,2-trifluoroethyl)acetamide hydrochloride] | 0.18 µM | 0.062 µM
15 | O=C(Cn1nc(C2CN(C(=O)c3ccnc(NC4CC4)c3)C2)c2c(F)cccc21)NCC(F)(F)F [Compound E-65, 2-(3-{1-[2-(cyclopropylamino)pyridine-4-carbonyl]azetidin-3-yl}-4-fluoro-1H-indazol-1-yl)-N-(2,2,2-trifluoroethyl)acetamide hydrochloride] | 0.041 µM | 0.0019 µM
16 | O=C(Cn1nc(C2CN(C(=O)c3ccnc(NC4CCC4)c3)C2)c2c(F)cccc21)NCC(F)(F)F [Compound E-68, 2-(3-{1-[2-(cyclobutylamino)pyridine-4-carbonyl]azetidin-3-yl}-4-fluoro-1H-indazol-1-yl)-N-(2,2,2-trifluoroethyl)acetamide hydrochloride] | 0.008 µM | 0.0038 µM
17 | Nc1cc(C(=O)N2CC(c3nn(CC(=O)NCC(F)(F)F)c4ccc(F)c(Br)c34)C2)ccn1 [Compound E-70, 2-{3-[1-(2-aminopyridine-4-carbonyl)azetidin-3-yl]-4-bromo-5-fluoro-1H-indazol-1-yl}-N-(2,2,2-trifluoroethyl)acetamide hydrochloride] | 0.12 µM | 0.0017 µM
18 | O=C(c1ccnc(NC2CC2)c1)N1CC(c2nn(CC(=O)N3CCC[C@H]3C(F)(F)F)c3cc(F)cc(F)c23)C1 [Compound E-72, 2-(3-{1-[2-(cyclopropylamino)pyridine-4-carbonyl]azetidin-3-yl)-4,6-difluoro-1H-indazol-1-yl)-1-[(2S)-2-(trifluoromethyl)pyrrolidin-1 - yllethan-1-one hydrochloride] | 0.2 µM | 0.0085 µM
19 | Nc1cc(C(=O)N2CC(c3nn(CC(=O)N4CCO[C@@H](C(F)(F)F)C4)c4cc(F)cc(F)c34)C2)ccn1 [Compound E-73, 2-(3-[1-(2-aminopyridine-4-carbonyl)azetidin-3-yl]-4,6-difluoro-1H-indazol-1-yl}-1-l(2R)-2-(trifluoromethyl)morpholin-4-yl]ethan-1-one hydrochloride] | 0.013 µM | 0.0056 µM
20 | O=C(c1ccnc(NC2CCC(F)(F)CC2)c1)N1CC(c2nn(CC(=O)N3CCC[C@H]3C(F)(F)F)c3cc(F)cc(F)c23)C1 [Compound E-75, 2-[3-(1-{2-[(4,4-difluorocyclohexyl)aminolpyridine-4-carbonyl}azetidin-3-yl)-4,6-difluoro-1H-indazol-1-yl]-1-[(2S)-2-(trifluoromethyl)pyrrolidin-1-yl]ethan-1-one hydrochloride] | 0.033 µM | 0.015 µM
21 | Nc1cc(C(=O)N2CC(c3nn(CC(=O)N4CCCC4)c4cc(F)cc(F)c34)C2)ccn1 [Compound E-76, 2-{3-[1-(2-aminopyridine-4-carbonyl)azetidin-3-yl]-4,6-difluoro-1H-indazol-1-yl}-1-(pyrrolidin-1-yl)ethan-1-one] | 1.3 µM | 0.1 µM
22 | Cc1c(C(=O)N2CC(c3nn(CC(=O)N4CCC[C@H]4C(F)(F)F)c4cc(F)cc(F)c34)C2)ccnc1N [Compound E-77, 2-{3-[1-(2-amino-3-methylpyridine-4-carbonyl)azetidin-3-yl]-4,6-difluoro-1H-indazol-1-yl}-1-{(2S)-2-(trifluoromethyl)pyrrolidin-1-yl]ethan-1-one hydrochloride] | 0.32 µM | 0.0035 µM
23 | Cc1cnc(N)cc1C(=O)N1CC(c2nn(CC(=O)N3CCC[C@H]3C(F)(F)F)c3cc(F)cc(F)c23)C1 [Compound E-78, 2-{3-[1-(2-amino-5-methylpyridine-4-carbonyl)azetidin-3-yl]-4,6-difluoro-1H-indazol-1-yl}-1-[(2S)-2-(trifluoromethyl)pyrrolidin-1-yl]ethan-1-one hydrochloride] | 0.38 µM | 0.013 µM
24 | C[C@H]1CN(C(=O)Cn2nc(C3CN(C(=O)c4ccnc(N)c4)C3)c3c(F)cc(F)cc32)CCO1 [Compound E-79, 2-{3-[1-(2-aminopyridine-4-carbonyl)azetidin-3-yl]-4,6-difluoro-1H-indazol-1-yl}-1-[(2S)-2-methylmorpholin-4-yl]ethan-1-one hydrochloride] | 3.4 µM | 0.035 µM
25 | C[C@@H]1COCCN1C(=O)Cn1nc(C2CN(C(=O)c3ccnc(N)c3)C2)c2c(F)cc(F)cc21 [Compound E-80, 2-{3-[1-(2-aminopyridine-4-carbonyl)azetidin-3-yl]-4,6-difluoro-1H-indazol-1-yl}-1-[(3R)-3-methylmorpholin-4-yl]ethan-1-one hydrochloride] | 4.2 µM | 0.036 µM
